Consider one molecule from patent US9765075B2, “Substituted bridged urea analogs as sirtuin modulators” (GLAXOSMITHKLINE LLC, priority 2013, dated 2017).

Positions count from the first letter of the chain named. Counter-ions that a name gives are not always drawn.

Holding throughout (assay): SIRT1 inhibition assay, OAcADPr mass spectrometry
What all share (assay type): biochemical

One experiment deals with T1, full-length hSIRT1 N226A (Homo sapiens, UniProt Q96EB6, N226A).
T1 construct: The following point mutants of full-length hSIRT1 were generated; His6 (C); made in house
T1 sequence (Q96EB6 1-747 N226A): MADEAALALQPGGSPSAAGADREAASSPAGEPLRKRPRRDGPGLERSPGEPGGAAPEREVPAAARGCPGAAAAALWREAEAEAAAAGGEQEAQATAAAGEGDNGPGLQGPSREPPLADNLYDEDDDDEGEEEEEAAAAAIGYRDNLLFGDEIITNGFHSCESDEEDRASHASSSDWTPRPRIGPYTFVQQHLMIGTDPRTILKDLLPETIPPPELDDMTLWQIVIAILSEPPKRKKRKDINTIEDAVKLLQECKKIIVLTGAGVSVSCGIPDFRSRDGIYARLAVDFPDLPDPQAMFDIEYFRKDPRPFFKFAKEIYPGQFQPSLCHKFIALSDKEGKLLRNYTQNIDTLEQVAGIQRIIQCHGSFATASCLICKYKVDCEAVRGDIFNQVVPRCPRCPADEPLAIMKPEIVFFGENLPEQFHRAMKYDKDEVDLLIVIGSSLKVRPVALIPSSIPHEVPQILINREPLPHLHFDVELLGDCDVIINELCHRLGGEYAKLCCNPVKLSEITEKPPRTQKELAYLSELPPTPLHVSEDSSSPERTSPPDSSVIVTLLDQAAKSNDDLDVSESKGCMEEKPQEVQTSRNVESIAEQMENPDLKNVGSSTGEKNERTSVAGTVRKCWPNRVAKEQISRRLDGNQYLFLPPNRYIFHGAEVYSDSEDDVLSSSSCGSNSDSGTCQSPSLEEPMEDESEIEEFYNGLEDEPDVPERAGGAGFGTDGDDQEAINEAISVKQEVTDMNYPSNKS

Another experiment addresses T2, full-length hSIRT1 E230K (Homo sapiens, UniProt Q96EB6, E230K).
T2 construct: His6 (C); made in house
T2 sequence (Q96EB6 1-747 E230K): T1 sequence (Q96EB6 1-747 N226A) with A226N, E230K

Another experiment addresses T3, full-length hSIRT1 I223R (Homo sapiens, UniProt Q96EB6, I223R).
T3 construct: made in house
T3 sequence (Q96EB6 1-747 I223R): T1 sequence (Q96EB6 1-747 N226A) with I223R, A226N

`CCCC[C@H](NC(=O)[C@H](CC(C)C)NC(=O)[C@H](CCCCNC(=O)C(F)(F)F)NC(=O)[C@H](CCCCN)NC(=O)[C@H](Cc1c[nH]cn1)NC(=O)[C@H](CCCNC(=N)N)NC(C)=O)C(=O)N[C@@H](Cc1ccccc1)C(N)=O` [TFA-p53 7-mer, Ac-RHK-K^TFA-L-Nle-F-NH2]: the values for the IC50 against full-length hSIRT1 N226A, at full-length hSIRT1 E230K and at full-length hSIRT1 I223R were 350 ± 40 nM, 1600 ± 300 nM and 660 ± 60 nM, respectively.

What is called IC50 is the concentration that inhibits the measured activity by half. High values mean weaker potency in that assay, low ones greater potency in that assay.
